Assay results published in US11578061B2, “Inhibitors of LRRK2 kinase” (Halia Therapeutics, Inc., priority 2021, dated 2023).

Each compound was assayed against recombinant human LRRK2 (catalytic domain only [amino acids 970-2527], GST-tagged) (Homo sapiens (Human), UniProt Q5S007) (assay: LRRK2 Enzymatic Assay). Details: LRRKtide substrate, [32P]-ATP.
Type: biochemical
Summary of the method: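 Radiometric P81 filter-binding read-out of [32P]-ATP transfer to LRRKtide (20 μM) by 30 nM GST-LRRK2 970-2527, 2 h at room temperature after 20 min compound preincubation (10 μM–0.5 nM, 1% DMSO). IC50 derived from % remaining activity versus DMSO.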

Chain of recombinant human LRRK2 (catalytic domain only [amino acids 970-2527], GST-tagged) (Q5S007 970-2527): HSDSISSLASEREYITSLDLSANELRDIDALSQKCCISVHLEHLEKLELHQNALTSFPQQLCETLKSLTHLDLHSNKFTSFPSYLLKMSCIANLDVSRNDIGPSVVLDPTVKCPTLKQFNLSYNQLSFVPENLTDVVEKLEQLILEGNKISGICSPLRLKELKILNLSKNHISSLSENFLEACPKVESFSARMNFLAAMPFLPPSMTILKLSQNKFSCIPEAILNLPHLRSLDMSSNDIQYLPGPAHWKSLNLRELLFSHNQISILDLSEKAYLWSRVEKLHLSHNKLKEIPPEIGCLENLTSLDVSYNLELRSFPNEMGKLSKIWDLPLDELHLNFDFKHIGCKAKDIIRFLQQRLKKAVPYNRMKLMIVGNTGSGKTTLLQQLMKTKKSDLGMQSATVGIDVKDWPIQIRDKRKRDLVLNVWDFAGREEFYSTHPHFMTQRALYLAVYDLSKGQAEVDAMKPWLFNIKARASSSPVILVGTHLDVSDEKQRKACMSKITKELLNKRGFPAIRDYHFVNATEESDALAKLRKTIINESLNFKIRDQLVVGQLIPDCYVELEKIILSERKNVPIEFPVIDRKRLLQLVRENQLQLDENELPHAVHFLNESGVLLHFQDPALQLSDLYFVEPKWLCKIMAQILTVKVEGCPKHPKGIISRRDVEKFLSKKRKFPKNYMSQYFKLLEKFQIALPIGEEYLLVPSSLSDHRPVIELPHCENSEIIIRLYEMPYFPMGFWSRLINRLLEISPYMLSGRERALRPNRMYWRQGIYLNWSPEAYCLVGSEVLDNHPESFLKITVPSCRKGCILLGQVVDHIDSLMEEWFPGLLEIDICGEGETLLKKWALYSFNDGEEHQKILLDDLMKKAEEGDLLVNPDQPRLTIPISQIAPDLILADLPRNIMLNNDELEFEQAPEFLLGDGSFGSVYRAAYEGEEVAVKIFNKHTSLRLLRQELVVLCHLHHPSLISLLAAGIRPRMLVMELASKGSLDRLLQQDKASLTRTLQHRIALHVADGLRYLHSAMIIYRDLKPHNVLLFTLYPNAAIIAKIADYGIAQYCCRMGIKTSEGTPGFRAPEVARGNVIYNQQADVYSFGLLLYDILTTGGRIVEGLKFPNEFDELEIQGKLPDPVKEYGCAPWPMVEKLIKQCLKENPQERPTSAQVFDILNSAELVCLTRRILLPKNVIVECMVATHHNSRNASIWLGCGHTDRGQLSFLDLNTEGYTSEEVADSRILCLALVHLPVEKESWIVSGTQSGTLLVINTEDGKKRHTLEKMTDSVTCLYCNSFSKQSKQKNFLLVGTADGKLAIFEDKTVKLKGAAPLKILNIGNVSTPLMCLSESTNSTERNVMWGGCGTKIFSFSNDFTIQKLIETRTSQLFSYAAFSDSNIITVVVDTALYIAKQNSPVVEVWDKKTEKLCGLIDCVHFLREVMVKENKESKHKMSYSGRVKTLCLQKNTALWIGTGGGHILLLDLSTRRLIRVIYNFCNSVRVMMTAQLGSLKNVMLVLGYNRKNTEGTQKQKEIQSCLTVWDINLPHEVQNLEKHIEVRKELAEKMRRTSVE

Row | SMILES | IC50
1 | CC(N[C@H]1CC[C@H](COc2nc(Nc3ccc(N4CCOCC4)cc3)ncc2F)CC1)C(F)(F)F (stereo partly drawn) [Example 116, 5-fluoro-N-(4-morpholino-phenyl)-4-(((1R,4R)-4-((1,1,1-trifluoro-propan-2-yl)amino)cyclohexyl)methoxy) pyrimidin-2-amine] | 0.2 to 0.4 µM
2 | CCO[C@H]1CC[C@@H](COc2nc(Nc3ccc(N4CCOCC4)cc3)ncc2F)CC1 [Example 275, 4-(((1S,4S)-4-ethoxycyclohexyl)methoxy)-5-fluoro-N-(4-morpholinophenyl)pyrimidin-2-amine] | 0.05 to 0.2 µM
3 | O[C@H]1CC[C@H](COc2nc(Nc3cn(C4CC4)nc3Cl)ncc2F)CC1 [Example 239, (1R,4R)-4-(((2-((3-chloro-1-cyclopropyl-1H-pyrazol-4-yl)amino)-5-fluoropyrimidin-4-yl)oxy)methyl)cyclohexan-1-ol] | 0.2 to 0.4 µM
4 | CC1(C(=O)N[C@H]2CC[C@H](COc3ccnc(Nc4ccc(N5CCOCC5)cc4)n3)CC2)CC1 [Example 71, 1-methyl-N-((1R,4R)-4-(((2-((4-morpholinophenyl)amino)pyrimidin-4-yl)oxy)methyl)cyclo-hexyl)cyclopropane-1-carboxamide] | > 0.4 µM
5 | Cc1nn(C(C)(C)C#N)cc1Nc1ncc(Cl)c(OCC2CCC(NC3CC(F)(F)C3)CC2)n1 (stereo not shown) [Example 145, 2-(4-((5-chloro-4-((4-((3,3-difluorocyclobutyl)amino)cyclohexyl)methoxy)pyrimidin-2-yl)amino)-3-methyl-1H-pyrazol-1-yl)-2-methylpropanenitrile] | < 0.05 µM
6 | C[C@@H]1CN(c2ccc(Nc3nccc(OCC4CCC(O)CC4)n3)cc2)C[C@H](C)O1 (stereo partly drawn) [Example 118, 4-(((2-((4-((2S,6R)-2,6-dimethylmorpholino)phenyl)amino)pyrimidin-4-yl)oxy)methyl)cyclohexan-1-ol] | 0.05 to 0.2 µM
7 | COC1CCC(COc2ccnc(Nc3cn(C(C)(C)C#N)nc3C)n2)CC1 (stereo not shown) [Example 162, 2-(4-((4-((4-methoxycyclohexyl)methoxy)pyrimidin-2-yl)amino)-3-methyl-1H-pyrazol-1-yl)-2-methylpropanenitrile] | 0.2 to 0.4 µM
8 | Cc1nn(C(C)(C)C#N)cc1Nc1nccc(OCC2(F)CCN(C)CC2)n1 [Example 60, 2-(4-((4-((4-fluoro-1-methylpiperidin-4-yl)methoxy)pyrimidin-2-yl)amino)-3-methyl-1H-pyrazol-1-yl)-2-methylpropanenitrile] | > 0.4 µM
9 | CN1CCC(F)(COc2nc(Nc3ccc(N4CCOCC4)cc3)ncc2F)CC1 [Example 64, 5-fluoro-4-((4-fluoro-1-methylpiperidin-4-yl)methoxy)-N-(4-morpholinophenyl)py-rimidin-2-amine] | > 0.4 µM
10 | Cc1nn(C2CC(C#N)C2)cc1Nc1ncc(Cl)c(OCC2CCN(C)CC2F)n1 (stereo not shown) [Example 63, 3-(4-((5-chloro-4-((3-fluoro-1-methylpiperidin-4-yl)methoxy)pyrimidin-2-yl)amino)-3-methyl-1H-pyrazol-1-yl)cyclobutane-1-carbonitrile] | > 0.4 µM
11 | O[C@@H]1CC[C@H](COc2nc(Nc3ccc(N4CCOCC4)cc3)ncc2F)C[C@H]1F [Example 258, (1R,2R,4S)-2-fluoro-4-(((5-fluoro-2-((4-morpholinophenyl)amino)pyrimidin-4-yl)oxy)methyl)cyclohexan-1-ol] | 0.05 to 0.2 µM
12 | N[C@H]1CC[C@H](COc2ccnc(Nc3ccn(CC(F)F)n3)n2)CC1 [Example 5, 4-(((1R,4R)-4-aminocyclohexyl)methoxy)-N-(1-(2,2-difluoroethyl)-1H-pyrazol-3-yl) pyrimidin-2-amine] | 0.05 to 0.2 µM
13 | CC(=O)NC1CCCC(COc2nc(Nc3ccc(N4C[C@@H](C)O[C@@H](C)C4)cc3)ncc2F)CC1 (stereo partly drawn) [Example 93, N-(4-(((2-((4-((2S,6R)-2,6-dimethylmorpholino)phenyl)amino)-5-fluoropyrimidin-4-yl)oxy)methyl)cyclo-heptyl)acetamide] | < 0.05 µM
14 | CN[C@H]1CC[C@@H](COc2nc(Nc3cn(C4CC(C#N)C4)nc3C)ncc2Cl)C1 (stereo partly drawn) [Example 53, 3-(4-((5-chloro-4-(((1R,3S)-3-(methylamino)cyclo-pentyl)methoxy)py-rimidin-2-yl)amino)-3-methyl-1H-pyrazol-1-yl)cyclobutane-1-carbonitrile] | < 0.05 µM
15 | Cc1nn(C(C)(C)C#N)cc1Nc1ncc(Cl)c(OCC2COC2)n1 [Example 158, 2-(4-((5-chloro-4-(oxetan-3-ylmethoxy)pyrimidin-2-yl)amino)-3-methyl-1H-pyrazol-1-yl)-2-methylpropanenitrile] | 0.05 to 0.2 µM
16 | COc1nn(C(C)C)cc1Nc1ncc(F)c(OC[C@H]2CC[C@H](O)CC2)n1 [Example 244, (1R,4R)-4-(((5-fluoro-2-((1-isopropyl-3-methoxy-1H-pyrazol-4-yl)amino)pyrimidin-4-yl)oxy)methyl)cyclohexan-1-ol] | > 0.4 µM
17 | O=C(C(F)F)N1CCC(COc2nc(Nc3cccc(N4CCOCC4)c3)ncc2Cl)CC1 [Example 110, 1-(4-(((5-chloro-2-((3-morpholino-phenyl)amino)pyrimidin-4-yl)oxy)methyl)piperidin-1-yl)-2,2-difluoro-ethan-1-one] | < 0.05 µM

Row | SMILES | IC50
18 | CNC1CCCC(COc2ccnc(Nc3ccc(N4CCOCC4)cc3)n2)C1 (stereo not shown) [Example 47, 4-((3-(methylamino)cyclo-hexyl)methoxy)-N-(4-morpholinophenyl) pyrimidin-2-amine] | 0.2 to 0.4 µM
19 | CC(=O)N[C@H]1CC[C@H](COc2ccnc(Nc3ccc(N4CCOCC4)cc3)n2)CC1 [Example 72, N-((1R,4R)-4-(((2-((4-morpholinophenyl)amino)pyrimidin-4-yl)oxy)methyl)cyclo-hexyl)acetamide] | 0.05 to 0.2 µM
20 | O=C(N[C@H]1CC[C@H](COc2ccnc(Nc3ccc(N4CCOCC4)cc3)n2)CC1)C(F)(F)F [Example 98, 2,2,2-trifluoro-N-((1R,4R)-4-(((2-((4-morpholino-phenyl)amino)pyrimidin-4-yl)oxy)methyl)cyclohexyl) acetamide] | 0.05 to 0.2 µM
21 | CC(=O)N[C@H]1CC[C@H](COc2nc(Nc3cnn(CCF)c3)ncc2F)CC1 [Example 189, N-((1R,4R)-4-(((5-fluoro-2-((1-(2-fluoroethyl)-1H-pyrazol-4-yl)amino)pyrimidin-4-yl)oxy)methyl)cyclo-hexyl)acetamide] | < 0.05 µM
22 | Fc1cnc(Nc2ccc(N3C4CCC3COC4)cc2)nc1OCC1CCNCC1(F)F (stereo not shown) [Example 163, N-(4-(3-oxa-8-azabicyclo[3.2.1]octan-8-yl)phenyl)-4-((3,3-difluoropiperidin-4-yl)methoxy)-5-fluoropyrimidin-2-amine] | 0.05 to 0.2 µM
23 | Cc1nn(C(C)(C)C#N)cc1Nc1nccc(OCC2CCC(O)C2)n1 (stereo not shown) [Example 130, 2-(4-((4-((3-hydroxycyclopentyl)methoxy)pyrimidin-2-yl)amino)-3-methyl-1H-pyrazol-1-yl)-2-methylpropanenitrile] | 0.05 to 0.2 µM
24 | CC(=O)N[C@H]1CC[C@H](COc2nc(Nc3cn(C(C)C)nc3Cl)ncc2F)CC1 [Example 202, N-((1R,4R)-4-(((2-((3-chloro-1-isopropyl-1H-pyrazol-4-yl)amino)-5-fluoropyrimidin-4-yl)oxy)methyl)cyclo-hexyl)acetamide] | < 0.05 µM
25 | CC(=O)N1CCC(COc2nc(Nc3ccc(N4CCOCC4)cc3)ncc2F)C(F)C1 (single isomer, unassigned) [Example 172, 1-(3-fluoro-4-(((5-fluoro-2-((4-morpholinophenyl)amino)pyrimidin-4-yl)oxy)methyl)piper-idin-1-yl)ethan-1-one] | 0.05 to 0.2 µM
26 | Cc1nc(Nc2ccc(N3C[C@@H](C)O[C@@H](C)C3)cc2)nc(OC[C@H]2CC[C@H](O)CC2)c1F [Example 266, (1R,4R)-4-(((2-((4-((2S,6R)-2,6-dimethylmorpholino)phenyl)amino)-5-fluoro-6-methylpyrimidin-4-yl)oxy)methyl)cyclohexan-1-ol] | > 0.4 µM
27 | CC(=O)N[C@H]1CC[C@@H](COc2ccnc(Nc3ccc(N4CCOCC4)cc3)n2)C1 [Example 89, N-((1S,3R)-3-(((2-((4-morpholinophenyl)amino)pyrimidin-4-yl)oxy)methyl)cyclo-pentyl)acetamide] | > 0.4 µM
28 | CC(C)n1cc(Nc2ncc(F)c(OC[C@H]3CC[C@H](C(C)(C)O)CC3)n2)cn1 [Example 255, 2-((1R,4R)-4-(((5-fluoro-2-((1-isopropyl-1H-pyrazol-4-yl)amino)pyrimidin-4-yl)oxy)methyl)cyclohexyl)propan-2-ol] | 0.05 to 0.2 µM
29 | Cc1nn(C(C)(C)C#N)cc1Nc1ncc(Cl)c(OCC2(F)CCNCC2)n1 [Example 20, 2-(4-((5-chloro-4-((4-fluoropiperidin-4-yl)methoxy)pyrimidin-2-yl)amino)-3-methyl-1H-pyrazol-1-yl)-2-methylpropanenitrile] | < 0.05 µM
30 | CC(=O)N[C@H]1CC[C@H](COc2nc(Nc3cnn(C(C)C)c3)ncc2F)CC1 [Example 185, N-((1R,4R)-4-(((5-fluoro-2-((1-isopropyl-1H-pyrazol-4-yl)amino)pyrimidin-4-yl)oxy)methyl)cyclo-hexyl)acetamide] | < 0.05 µM
31 | CC(=O)N[C@H]1CC[C@H](COc2nc(Nc3ccc(N4CCOCC4)cc3)ncc2Cl)CC1 [Example 80, N-((1R,4R)-4-(((5-chloro-2-((4-morpholinophenyl)amino)pyrimidin-4-yl)oxy)methyl)cyclo-hexyl)acetamide] | < 0.05 µM
32 | CN[C@H]1CC[C@H](COc2nc(Nc3cc(F)c(C(=O)N4CCOCC4)cc3OC)ncc2OC)CC1 [Example 36] | < 0.05 µM
33 | Cc1nn(C(C)(C)C#N)cc1Nc1ncc(Cl)c(OCC2CN(C)C2)n1 [Example 68, 2-(4-((5-chloro-4-((1-methylazetidin-3-yl)methoxy)pyrimidin-2-yl)amino)-3-methyl-1H-pyrazol-1-yl)-2-methylpropanenitrile] | > 0.4 µM
34 | CC1(O)CCC(COc2nc(Nc3ccc(N4CCOCC4)cc3)ncc2F)CC1 (stereo not shown) [Example 251, 4-(((5-fluoro-2-((4-morpholinophenyl)amino)pyrimidin-4-yl)oxy)methyl)-1-methylcyclohexan-1-ol] | 0.05 to 0.2 µM
